From paper PMC2666074 (Biochemistry, 2008)
Ends that are not written are not given here. Peptide text beside a SMILES is read from it.

How the values were obtained:
S100A6 [1] = biological target: T1, S100A6 (Oryctolagus cuniculus, UniProt P30801); test: NMR titration / chemical shift perturbation, SIP; assay type: binding, rabbit; conditions: 30 °C
SCF-TBL1 E3 ligase = conditions: SGS domain mutant of SIP; cited from earlier work
S100A6 [2] = biological target: T1, S100A6; assay type: binding, rabbit; conditions: 25 °C, pH 7.0, 10 mM Ca^2+; for heat of binding in ITC: no affinity could be measured
S100A6 [3] = conditions: cited from earlier work

CC[C@H](C)[C@H](NC(=O)[C@H](CCCCN)NC(=O)[C@H](CCCCN)NC(=O)[C@H](CC(C)C)NC(=O)[C@@H](NC(=O)[C@H](CC(N)=O)NC(=O)[C@H](CCSC)NC(=O)[C@H](CC(C)C)NC(=O)CNC(=O)[C@H](CCC(=O)O)NC(=O)[C@H](CO)NC(=O)[C@H](CO)NC(=O)CNC(=O)[C@@H]1CCCN1C(=O)CN)C(C)C)C(=O)N[C@@H](Cc1ccc(O)cc1)C(=O)N[C@@H](CCC(=O)O)C(=O)N[C@@H](CC(=O)O)C(=O)NCC(=O)N[C@@H](CC(=O)O)C(=O)N[C@@H](CC(=O)O)C(=O)N[C@@H](CC(=O)O)C(=O)N[C@@H](CCSC)C(=O)N[C@@H](CCCCN)C(=O)N[C@@H](CCCNC(=N)N)C(=O)N[C@H](C(=O)N[C@H](C(=O)N[C@@H](CC(N)=O)C(=O)N[C@@H](CCCCN)C(=O)N[C@@H](C)C(=O)N[C@@H](Cc1c[nH]c2ccccc12)C(=O)N[C@H](C(=O)N[C@@H](CCC(=O)O)C(=O)N[C@@H](CO)C(=O)N[C@@H](CCCNC(=N)N)C(=O)O)C(C)C)[C@@H](C)CC)[C@@H](C)O [SIP(189–219)] (H-GPGSSEGLMNVLKKIYEDGDDDMKRTINKAWVESR-OH)
exchange regime of the interaction (NMR titration) (S100A6 [1]; 15N-1H HSQC, pH 6.5, 10 mM Ca^2+): intermediate-fast exchange regime
binding stoichiometry by NMR (S100A6 [1]; 15N-labeled S100A6 0.1 mM, 50 mM Tris pH 6.5, 10 mM Ca^2+): two SIP molecules are symmetrically bound to the S100A6 dimer

E217K: SGS domain mutant of SIP
function of the E3 ligase, in words (SCF-TBL1 E3 ligase): disrupt the function of the E3 ligase

SIP(203–219): SIP fragment for second putative helix (GDDDMKRTINKAWVESR; not fully specified)
heat of binding in ITC (S100A6 [2]): did not produce any observable heat of binding

SIP L196A: full length SIP construct, substitution of Leu196 for Ala
heat of binding in ITC (S100A6 [2]): did not produce detectable heat changes

isolated SGS domain fragment: intrinsically disordered SGS (Sgt1 specific) domain (E178-F229) (EKPSYDTEADPSEGLMNVLKKIYEDGDDDMKRTINKAWVESREKQAREDTEF; left off: His-tag, N-terminal, cleaved)
Ca^2+ dependence of S100A6 binding (S100A6 [3]): strictly Ca^2+ dependent
S100A6 binding affinity, in words (S100A6 [2]; ITC, compared with full-length SIP / SIP-SGS): very similar S100A6 binding affinities

CC[C@H](C)[C@H](NC(=O)[C@H](CCCCN)NC(=O)[C@H](CCCCN)NC(=O)[C@H](CC(C)C)NC(=O)[C@@H](NC(=O)[C@H](CC(N)=O)NC(=O)[C@H](CCSC)NC(=O)[C@H](CC(C)C)NC(=O)CNC(=O)[C@H](CCC(=O)O)NC(=O)[C@H](CO)NC(=O)[C@H](CO)NC(=O)CNC(=O)[C@@H]1CCCN1C(=O)CN)C(C)C)C(=O)N[C@@H](Cc1ccc(O)cc1)C(=O)N[C@@H](CCC(=O)O)C(=O)N[C@@H](CC(=O)O)C(=O)NCC(=O)O [SIP(189–203)] (H-GPGSSEGLMNVLKKIYEDG-OH)
reduction of S100A6 binding affinity (S100A6 [2]; ITC, SIP fragment vs SIP(189–219)): 4 fold
